Article PMC6868041, “Evans Blue Inhibits HBV Replication Through a Dual Antiviral Mechanism by Targeting Virus Binding and Capsid Assembly” (Frontiers in Microbiology, 2019)
pIC50, pKd: −log10 of the molar value.

How the values were obtained:
[1] = molecular target: T1, NTCP (recombinant His-tagged human NTCP; hNTCP) (Homo sapiens, UniProt Q14973); test: inhibition of FITC-preS1-myr binding to Huh7D-hNTCP cells, high-content imaging; format: cell-based; parameters: gene SLC10A1
T1 sequence (Q14973 1-349): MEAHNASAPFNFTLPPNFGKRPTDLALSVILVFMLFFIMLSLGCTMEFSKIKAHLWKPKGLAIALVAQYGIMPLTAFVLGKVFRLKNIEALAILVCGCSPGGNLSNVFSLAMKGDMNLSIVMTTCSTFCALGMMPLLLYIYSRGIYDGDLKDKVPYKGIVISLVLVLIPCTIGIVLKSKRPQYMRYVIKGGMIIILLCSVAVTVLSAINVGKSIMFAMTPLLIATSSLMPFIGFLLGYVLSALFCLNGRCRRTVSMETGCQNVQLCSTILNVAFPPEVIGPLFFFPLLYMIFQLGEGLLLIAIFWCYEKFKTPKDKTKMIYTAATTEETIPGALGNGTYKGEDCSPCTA
Text: inhibition of FITC-preS1-myr binding to Huh7D-hNTCP cells, high-content imaging on NTCP (recombinant His-tagged human NTCP; hNTCP) | inhibited the binding of FITC-preS1 to cells in a concentration-dependent manner with an IC50

BSA = molecular target: T2, BSA (Bos taurus, UniProt P02769); test: biolayer interferometry (Octet RED); format: binding; conditions: negative control protein, biotinylated BSA on sensor; paper states no interaction; unreliable
T2 construct: gene ALB; commercial serum albumin, biotinylated, control protein
T2 sequence (P02769 25-607): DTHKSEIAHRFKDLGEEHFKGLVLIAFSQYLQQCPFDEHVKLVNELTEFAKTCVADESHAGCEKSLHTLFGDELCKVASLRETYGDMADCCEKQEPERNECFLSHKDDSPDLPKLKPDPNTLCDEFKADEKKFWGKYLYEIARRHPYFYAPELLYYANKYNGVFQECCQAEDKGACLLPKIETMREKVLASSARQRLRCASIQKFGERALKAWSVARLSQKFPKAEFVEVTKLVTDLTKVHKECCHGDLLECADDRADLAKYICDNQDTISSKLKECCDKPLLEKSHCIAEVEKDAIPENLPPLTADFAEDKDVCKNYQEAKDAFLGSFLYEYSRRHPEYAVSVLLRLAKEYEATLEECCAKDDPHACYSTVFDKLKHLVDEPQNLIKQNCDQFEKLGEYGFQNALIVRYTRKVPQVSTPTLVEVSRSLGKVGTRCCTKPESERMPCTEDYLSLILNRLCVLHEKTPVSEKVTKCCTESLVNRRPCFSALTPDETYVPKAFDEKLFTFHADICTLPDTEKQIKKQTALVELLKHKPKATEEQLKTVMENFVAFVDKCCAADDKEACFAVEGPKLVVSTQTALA

[2] = molecular target: T1, NTCP (recombinant His-tagged human NTCP; hNTCP); test: biolayer interferometry (Octet RED); format: binding; parameters: gene SLC10A1; full-length from pEnter-hNTCP, His-tag, expressed in and purified from HEK293T, biotinylated for Octet

Q: What does the source list for `Cc1cc(-c2ccc(/N=N/c3ccc4c(S(=O)(=O)O)cc(S(=O)(=O)O)c(N)c4c3O)c(C)c2)ccc1/N=N/c1ccc2c(S(=O)(=O)O)cc(S(=O)(=O)O)c(N)c2c1O` [Evans blue]?
A: pIC50 [1]: ~5.30; KD (BSA): 468 µM; pKd [2]: 7.05
